# Target: T1, Alpha-1B adrenergic receptor (Homo sapiens, UniProt P35368)
# T1 sequence (P35368 whole entry): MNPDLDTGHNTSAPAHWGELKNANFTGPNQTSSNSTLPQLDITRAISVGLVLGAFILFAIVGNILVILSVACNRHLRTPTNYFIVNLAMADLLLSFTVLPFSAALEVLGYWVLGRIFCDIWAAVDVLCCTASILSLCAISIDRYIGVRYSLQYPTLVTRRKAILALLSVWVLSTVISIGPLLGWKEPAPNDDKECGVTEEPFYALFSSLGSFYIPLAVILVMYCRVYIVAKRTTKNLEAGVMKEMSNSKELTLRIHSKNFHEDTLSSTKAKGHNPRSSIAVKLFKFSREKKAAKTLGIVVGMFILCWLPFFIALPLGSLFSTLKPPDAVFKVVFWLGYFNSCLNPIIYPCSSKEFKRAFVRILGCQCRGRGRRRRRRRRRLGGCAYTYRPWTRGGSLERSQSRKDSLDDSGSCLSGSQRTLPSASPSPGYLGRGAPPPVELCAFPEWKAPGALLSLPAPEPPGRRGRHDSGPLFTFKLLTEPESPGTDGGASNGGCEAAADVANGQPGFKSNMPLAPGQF
structure (smiles),measurement,value
Fc1cccc2c1OC1CNCC1O2 (stereo unspecified) [CAS_105182-45-4],Ki,1000 nM

# — BindingDB's records for doi:10.1002/(SICI)1098-2396(200002)35:2<79::AID-SYN1>3.0.CO;2-X (Institut De Recherches Servier, 2000)
